Measurements published in patent publication US8569288B2, “Thienotriazolodiazepine derivatives active on apo A” (CircoMed LLC, priority 2008, dated 2013).
Where two headings read alike, the source gives them in different places.

Columns and labels:
[1] = biological target: platelet activating factor (PAF) (Homo sapiens, UniProt P25105); settings: known related thienotriazolodiazepine; cited from earlier work
[2] = tested on: apo A1 secretion in human hepatocytes; assay: Apo A1 secretion by human hepatocytes (ELISA of supernatant, normalised to cell protein); format: cell-based; settings: for Apo A1 (ng secreted per mg cell protein), 1st / Apo A1 (ng secreted per mg cell protein), 2nd / Apo A1 (ng secreted per mg cell protein), mean: 3x24 h; for Apo A1 (ng secreted per mg cell protein), 1st: 1st parallel measurement; for Apo A1 (ng secreted per mg cell protein), 2nd: 2nd parallel measurement; for Apo A1 (ng secreted per mg cell protein), mean: mean of two measurements; for Stimulation of apo A1 secretion versus control level (in words): at concentrations as low as 3 μM, human hepatocytes
Experimental: Human hepatocytes were isolated from pieces of livers, obtained from donors which could not be used for transplantation, following the procedure described in U.S. Pat. No. 6,444,664. The cells were seeded on culture dishes at a density of 1.5×10^5 viable cells per cm^2 and were maintained for the first 24 h in 1.5 mL per 10 cm^2 of Williams E medium supplemented with 10% heat inactivated fetal calf serum (FCS), 2 mmol/L L-glutamine, 20 mU/mL insulin (135 nmol/L), 50 nmol/L dexamethasone, 100 U/mL penicillin, 100 μg/mL streptomycin and 100 μg/mL kanamycin at 37° C. in a 5% CO2/95% air atmosphere. After 14-16 h the non-adherent cells were washed from the plates, using the same culture medium as described above. 24 h after seeding, the incubations with the compounds were started in 1 mL of the same culture medium, but with an insulin concentration of 10 nmol/L instead of 135 nmol/L.
The human hepatocytes were treated with compounds 5, 6 and 7 (dissolved in DMSO, with the final concentration of DMSO not exceeding 0.1% v/v) at concentrations of 100 μM, 30 μM, 10 μM and 3 μM and incubated for 24 hours. The DMSO concentration in all samples and controls was 0.1%. The control wells contained DMSO (0.1% v/v) alone. The medium on the cells was removed and replaced with fresh medium with fresh compound and incubated for 24 hours. The medium was then again removed and replaced with fresh medium with fresh compound and incubated for another 24 hours. The supernatant was then removed from the cells and levels of apo A1 were determined using a commercially available ELISA (AlerCHEK™) with a HRP conjugated goat anti-apo A1 antibody and TMB/peroxidase substrate colour developer. Supernatants were diluted 1:4 with the wash buffer provided in the kit.
After the last incubation the cells were washed twice with PBS, and BCA (bicinchoninic acid) reagent was added to each well to assay total cellular protein according to standard methods.

[3] = tested on: central benzodiazepine receptor (BZD); assay: Binding to central benzodiazepine receptor, [3H]flunitrazepam displacement on rat cerebral cortex membranes; settings: for % of control specific binding, 1st / % of control specific binding, 2nd / % of control specific binding, mean / IC50: 0.4 nM [3H]flunitrazepam
Experimental: Affinity of the compounds of the invention to the central benzodiazepine receptor (BZD) was measured by determining the binding of 0.4 nM [^3H]flunitrazepam to rat cerebral cortex membranes, and its displacement by compounds of the invention as compared to the reference ligand diazepam, at 4° C. for 60 min, as described by R. C. Speth et al., Life Sci. 24:351-358 (1979).
The specific binding to the receptors is defined as the difference between the total binding and the non-specific binding determined in the presence of an excess of unlabeled ligand (diazepam). The results are expressed as a percent of control specific binding ((measured specific binding/control specific binding)×100) obtained in the presence of compound 5, 6 and 7.
In each experiment, the respective reference compound was tested concurrently with compound 5, 6 and 7 in order to assess the assay suitability. It was tested at several concentrations (for IC50 value determination).

[4] = tested on: plasma apolipoprotein A1 (apo A1); settings: as described in U.S. Pat. No. 5,854,238; cited from earlier work

platelet activating factor (PAF), sequence (P25105 whole entry): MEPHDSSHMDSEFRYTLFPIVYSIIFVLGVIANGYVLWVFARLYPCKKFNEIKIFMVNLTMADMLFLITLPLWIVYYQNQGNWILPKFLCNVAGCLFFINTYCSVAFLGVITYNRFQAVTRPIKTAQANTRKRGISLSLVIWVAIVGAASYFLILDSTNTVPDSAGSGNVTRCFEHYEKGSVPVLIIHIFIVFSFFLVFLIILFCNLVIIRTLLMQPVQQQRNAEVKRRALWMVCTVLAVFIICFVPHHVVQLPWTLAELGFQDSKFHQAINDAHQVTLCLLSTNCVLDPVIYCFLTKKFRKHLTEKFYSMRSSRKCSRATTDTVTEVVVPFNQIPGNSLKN

Row | Structure (SMILES) | Apo A1 (ng secreted per mg cell protein), 1st ([2]; 3 μM) | Apo A1 (ng secreted per mg cell protein), 2nd ([2]; 3 μM) | Apo A1 (ng secreted per mg cell protein), mean ([2]; 3 μM) | Apo A1 (ng secreted per mg cell protein), 1st ([2]; 10 μM) | Apo A1 (ng secreted per mg cell protein), 2nd ([2]; 10 μM) | Apo A1 (ng secreted per mg cell protein), mean ([2]; 10 μM) | Apo A1 (ng secreted per mg cell protein), 1st ([2]; 30 μM) | Apo A1 (ng secreted per mg cell protein), 2nd ([2]; 30 μM) | Apo A1 (ng secreted per mg cell protein), mean ([2]; 30 μM) | Apo A1 (ng secreted per mg cell protein), 1st ([2]; 100 μM) | Apo A1 (ng secreted per mg cell protein), 2nd ([2]; 100 μM) | Apo A1 (ng secreted per mg cell protein), mean ([2]; 100 μM) | Stimulation of apo A1 secretion versus control level (in words) [2] | Affinity to the benzodiazepine receptor (in words) [3] | % of control specific binding, 1st ([3]; 10^−6 M) | % of control specific binding, 2nd ([3]; 10^−6 M) | % of control specific binding, mean ([3]; 10^−6 M) | % of control specific binding, 1st ([3]; 10^−7 M) | % of control specific binding, 2nd ([3]; 10^−7 M) | % of control specific binding, mean ([3]; 10^−7 M) | also measured
1 | Cc1nnc2n1-c1sc(CCC(=O)N3CCOCC3)cc1C(c1ccccc1Cl)=NC2 [WEB2086] | – | – | – | – | – | – | – | – | – | – | – | – | – | – | – | – | – | – | – | – | PAF antagonistic activity (in words) [1]: platelet activating factor (PAF) antagonistic activity
2 | Cc1nnc2n1-c1sccc1C(c1ccccc1)=NC2(C)C [compound 5, 6,6-Dimethyl-4-phenyl-9-methyl-6H-thieno[3,2f]-s-triazolo[4,3-a][1,4]diazepine] | 247 ng secreted per mg cell protein | 124 ng secreted per mg cell protein | 185 ng secreted per mg cell protein | 274 ng secreted per mg cell protein | 156 ng secreted per mg cell protein | 215 ng secreted per mg cell protein | 219 ng secreted per mg cell protein | 227 ng secreted per mg cell protein | 223 ng secreted per mg cell protein | 273 ng secreted per mg cell protein | 277 ng secreted per mg cell protein | 275 ng secreted per mg cell protein | stimulated secetion of apo A1 above the control level | no significant affinity | 90.0 % of control specific binding | 100.4 % of control specific binding | 95.2 % of control specific binding | 91.5 % of control specific binding | 96.7 % of control specific binding | 94.1 % of control specific binding | % of control specific binding, 1st ([3]; 10^−8 M): 102.0 % of control specific binding; % of control specific binding, 2nd ([3]; 10^−8 M): 94.3 % of control specific binding; % of control specific binding, mean ([3]; 10^−8 M): 98.2 % of control specific binding; % of control specific binding, 1st ([3]; 10^−9 M): 88.9 % of control specific binding; % of control specific binding, 2nd ([3]; 10^−9 M): 104.6 % of control specific binding; % of control specific binding, mean ([3]; 10^−9 M): 96.8 % of control specific binding
3 | Cc1nnc2n1-c1sccc1C(c1ccc3c(c1)OCO3)=NC2 [compound 6, 4-(3′,4′-Methylenedioxyphenyl)-9-methyl-6H-thieno[3,2-f]-s-triazolo[4,3-a][1,4]diazepine] | 144 ng secreted per mg cell protein | 160 ng secreted per mg cell protein | 152 ng secreted per mg cell protein | 186 ng secreted per mg cell protein | 212 ng secreted per mg cell protein | 199 ng secreted per mg cell protein | 290 ng secreted per mg cell protein | 293 ng secreted per mg cell protein | 292 ng secreted per mg cell protein | 397 ng secreted per mg cell protein | 276 ng secreted per mg cell protein | 336 ng secreted per mg cell protein | stimulated secetion of apo A1 above the control level | no significant affinity | 88.7 % of control specific binding | 100.5 % of control specific binding | 94.6 % of control specific binding | 104.1 % of control specific binding | 101.3 % of control specific binding | 102.7 % of control specific binding | % of control specific binding, 1st ([3]; 10^−8 M): 92.7 % of control specific binding; % of control specific binding, 2nd ([3]; 10^−8 M): 91.0 % of control specific binding; % of control specific binding, mean ([3]; 10^−8 M): 91.9 % of control specific binding; % of control specific binding, 1st ([3]; 10^−9 M): 110.1 % of control specific binding; % of control specific binding, 2nd ([3]; 10^−9 M): 83.2 % of control specific binding; % of control specific binding, mean ([3]; 10^−9 M): 96.7 % of control specific binding
4 | Cc1nnc2n1-c1sccc1C(c1ccccc1)=NC2 [compound 7, 9-Methyl-4-phenyl-6H-thieno[3,2-f]-s-triazolo[4,3-a][1,4]diazepine, reference compound] | 91 ng secreted per mg cell protein | 91 ng secreted per mg cell protein | 91 ng secreted per mg cell protein | 266 ng secreted per mg cell protein | 191 ng secreted per mg cell protein | 229 ng secreted per mg cell protein | 236 ng secreted per mg cell protein | 374 ng secreted per mg cell protein | 305 ng secreted per mg cell protein | 254 ng secreted per mg cell protein | 364 ng secreted per mg cell protein | 309 ng secreted per mg cell protein | clearly less active | moderate affinity | 18.9 % of control specific binding | 17.9 % of control specific binding | 18.4 % of control specific binding | 73.5 % of control specific binding | 68.0 % of control specific binding | 70.7 % of control specific binding | Activity in increasing plasma apo A1 (in words) [4]: active in increasing plasma apolipoprotein A1; IC50 ([3]; rat cerebral cortex membranes, read-out: IC50 of displacing the labelled ligand): ~500 nM; % of control specific binding, 1st ([3]; 10^−5 M): 2.3 % of control specific binding; % of control specific binding, 2nd ([3]; 10^−5 M): 1.8 % of control specific binding; % of control specific binding, mean ([3]; 10^−5 M): 2.1 % of control specific binding; % of control specific binding, 1st ([3]; 10^−8 M): 89.0 % of control specific binding; % of control specific binding, 2nd ([3]; 10^−8 M): 104.1 % of control specific binding; % of control specific binding, mean ([3]; 10^−8 M): 96.5 % of control specific binding
5 | CN1C(=O)CN=C(c2ccccc2)c2cc(Cl)ccc21 [diazepam, reference compound] | – | – | – | – | – | – | – | – | – | – | – | – | – | – | – | – | – | – | – | – | IC50 ([3]; 4° C., 60 min, read-out: IC50 of reference ligand in BZD binding assay): 16 nM
